The values that follow come from ChEMBL document CHEMBL4393687, “Multi-targeted ChEI-copper chelating molecules as neuroprotective agents” (Eur J Med Chem, 2019).

Data set [1] concerns the target Acetylcholinesterase (Electrophorus electricus) (UniProt O42275). The data set can be described thus: Inhibition of electric eel AChE at 50 nM using acetylthiocholine iodide as substrate preincubated for 60 mins followed by substrate addition measured for 5 mins by Ellman's method.
Data set [2] deals with Cholinesterase (Equus caballus) (UniProt P81908). Nature of the data set: Inhibition of equine serum BChE at 50 nM using acetylthiocholine iodide as substrate preincubated for 60 mins followed by substrate addition measured for 5 mins by Ellman's method. Background: Ellman's reagent forms a yellow product with free thiols.
Chain of Cholinesterase (Equus caballus) (P81908 whole entry): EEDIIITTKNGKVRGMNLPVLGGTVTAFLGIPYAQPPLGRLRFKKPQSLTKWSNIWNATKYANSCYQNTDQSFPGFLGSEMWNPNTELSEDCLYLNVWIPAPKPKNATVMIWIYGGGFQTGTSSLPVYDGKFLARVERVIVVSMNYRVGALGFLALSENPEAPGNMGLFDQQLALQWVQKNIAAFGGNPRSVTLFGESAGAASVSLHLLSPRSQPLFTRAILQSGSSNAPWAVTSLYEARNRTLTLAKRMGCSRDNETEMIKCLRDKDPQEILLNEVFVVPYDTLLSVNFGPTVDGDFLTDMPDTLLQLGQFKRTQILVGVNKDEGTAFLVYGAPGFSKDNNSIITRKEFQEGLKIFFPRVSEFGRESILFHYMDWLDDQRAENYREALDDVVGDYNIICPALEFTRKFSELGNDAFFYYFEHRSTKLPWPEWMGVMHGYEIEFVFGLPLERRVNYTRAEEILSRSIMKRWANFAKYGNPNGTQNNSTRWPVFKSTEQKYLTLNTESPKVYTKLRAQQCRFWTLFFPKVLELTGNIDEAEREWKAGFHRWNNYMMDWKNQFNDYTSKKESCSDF
Data set [3] in a line: Antioxidant activity assessed as DPPH free radical scavenging activity after 30 mins incubation in dark by UV-Visible spectrophotometric analysis. The class given is functional. (In general: Loss of DPPH colour is used to gauge radical scavenging.)
Data set [4] in a line: Metal chelating activity assessed as compound-Cu2+ complex formation by measuring shift in maximum absorption at 10 uM after 30 mins by UV-vis spectrophotometric analysis.
Data set [5] is described as follows: Metal chelating activity assessed as compound-Cu2+ complex formation at 1:1 ratio of test compound to CuCl2 incubated for 30 mins by UV-vis spectrophotometric analysis.
Data set [6] can be described thus: Metal chelating activity assessed as compound-Cu2+ complex formation at 1:2 ratio of test compound to CuCl2 incubated for 30 mins by UV-vis spectrophotometric analysis.
The nature of data set [7]: Cytotoxicity against mouse HT22 cells assessed as cell viability at 30 uM after 24 hrs by MTT assay relative to control. The class given is cell-based, HT-22. As to conditions: read-out: Activity. A general note: Tetrazolium dyes change colour on reduction, which living cells bring about.
Data set [8] can be described thus: Cytotoxicity against mouse HT22 cells assessed as cell viability at 100 uM after 24 hrs by MTT assay relative to control. The class given is cell-based, HT-22. The following applies: read-out: Activity.
Data set [9] deals with HT-22. Nature of the data set: Neuroprotective activity against glutamate-induced neuronal damage in mouse HT22 cells at 3 to 30 uM pretreated for 30 mins followed by glutamate challenge measured after 24 hrs by MTT assay. The class given is functional, cell-based.
Data set [10] can be described thus: Antioxidant activity assessed as DPPH free radical scavenging activity at 10 uM after 30 mins incubation in dark by UV-Visible spectrophotometric analysis relative to control. The class given is functional.

Activity calls are given as the source filed them. The rule behind the calls is not given here.

Chain of Acetylcholinesterase (Electrophorus electricus) (O42275 24-633 limits assumed): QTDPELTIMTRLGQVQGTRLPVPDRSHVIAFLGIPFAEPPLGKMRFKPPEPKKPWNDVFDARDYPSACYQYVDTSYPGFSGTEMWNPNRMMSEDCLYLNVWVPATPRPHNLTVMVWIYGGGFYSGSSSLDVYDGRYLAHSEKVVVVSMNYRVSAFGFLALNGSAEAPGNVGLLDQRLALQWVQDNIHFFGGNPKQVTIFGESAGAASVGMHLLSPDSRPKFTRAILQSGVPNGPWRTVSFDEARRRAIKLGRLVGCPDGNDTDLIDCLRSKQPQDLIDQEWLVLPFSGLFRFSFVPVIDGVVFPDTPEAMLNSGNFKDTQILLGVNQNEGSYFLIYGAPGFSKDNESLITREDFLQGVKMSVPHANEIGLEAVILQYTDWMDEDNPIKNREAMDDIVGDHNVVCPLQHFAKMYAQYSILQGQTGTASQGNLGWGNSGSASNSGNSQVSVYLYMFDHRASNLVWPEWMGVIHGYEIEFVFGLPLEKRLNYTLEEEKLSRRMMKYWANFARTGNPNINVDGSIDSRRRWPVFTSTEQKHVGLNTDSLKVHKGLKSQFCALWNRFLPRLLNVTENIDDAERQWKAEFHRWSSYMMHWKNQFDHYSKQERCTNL

As a reminder, the inhibition is how much of the control response was suppressed. Read a low inhibition as little suppression. For `CCN(C)C(=O)Oc1cccc([C@H](C)N(C)C)c1`, the inhibition in [1] is 2.59%; in data set [2] it was 54.7%.
As a reminder, the IC50 is the midpoint of a concentration-inhibition curve. On to `CCC(CC)CNc1ccc(O)c(CNc2cccc(OC(=O)N(C)CC)c2)c1`, for which the inhibition was 9.01% in [1] and 64.2% in data set [2]. Moreover, the IC50 in [3] came to 26.5 µM. In addition, the Activity in [4] came out at 50 nm. Moreover, the outcome in data set [5], in data set [6] and in [9] was Active. In addition, the viability at 24 h, 30 µM in data set [7] is 85.8%. Also, in data set [8], the viability at 24 h, 100 µM turned out to be 25.2%.
In the case of `CCN(C)C(=O)Oc1cccc(CCNCc2ccccc2O)c1`, the inhibition in data set [1] came to 3.58%; in data set [2] it was 34.5%. In data set [10], the Activity stood at 15.5%.
In the case of `CCN(C)C(=O)Oc1cccc(CNC(=O)c2cccnc2O)c1`, the values for the inhibition in data set [1] and in data set [2] were 7.59% and 46.5%, respectively. Also, the Activity in [10] was found to be 2.21%. Moreover, the viability at 24 h, 30 µM in data set [7] is 101%. The viability at 24 h, 100 µM in data set [8] turned out to be 82.5%.
In the case of `CCC(CC)CNc1ccc(O)c(CNCCc2cccc(OC(=O)N(C)CC)c2)c1`, the inhibition in data set [1] stood at 3.36%; in data set [2], 14.2%. In [3], the IC50 worked out at 28.7 µM.
As to `CCN(C)C(=O)Oc1cccc(NCc2ccccc2O)c1`, the inhibition was 8.13% in data set [1] and 38.5% in data set [2]. Besides, the Activity in data set [10] was 13.8%. Further, the viability at 24 h, 30 µM in data set [7] stood at 103%. In [8], the viability at 24 h, 100 µM is 80.3%.
In the case of `CCN(C)C(=O)Nc1cccc(NC(=O)c2cccnc2O)c1`, the Activity in [10] came out at 3.62%. The viability at 24 h, 30 µM in data set [7] amounted to 97.2%. Moreover, the viability at 24 h, 100 µM in [8] worked out at 96.1%.
Turning to `CCN(C)C(=O)Oc1cccc(NCc2ccccn2)c1`, the results for the inhibition in data set [1] and in data set [2] were 8.51% and 58.9%, respectively. In addition, in data set [10], the Activity was 7.4%. Also, the viability at 24 h, 30 µM in data set [7] came out at 91.3%. The viability at 24 h, 100 µM in [8] worked out at 80.5%.
In the case of `CCN(C)C(=O)Oc1cccc(NC(=O)c2cccnc2O)c1`, the inhibition turned out to be 1.87% in data set [1] and 73.6% in data set [2]. The Activity in data set [10] came to 4.18%. Moreover, the viability at 24 h, 30 µM in data set [7] amounted to 102%. Further, the viability at 24 h, 100 µM in [8] came to 98.6%.
`CCN(C)C(=O)Oc1cccc(CNCc2ccccc2O)c1`: the inhibition in data set [1] was 4.06%; in data set [2] it was 30.5%. In addition, the Activity in data set [10] turned out to be 17.7%. For the same compound, in [7], the viability at 24 h, 30 µM came out at 96.6%. Further, the viability at 24 h, 100 µM in data set [8] was 90.3%.
As to `Cc1c(C)c2c(c(C)c1O)CCC(C)(C(=O)O)O2` (configuration not stated) [TROLOX], the Activity in data set [10] was found to be 24.3%. Besides, the IC50 in [3] is 23.5 µM.
As to `CCN(C)C(=O)Oc1cccc(CCNC(=O)c2cccnc2O)c1`, the results for the inhibition in [1] and in data set [2] were 5.43% and 53.7%, respectively. For the same compound, in data set [10], the Activity was found to be 2.21%. Also, in data set [7], the viability at 24 h, 30 µM was 106%. In addition, the viability at 24 h, 100 µM in data set [8] was found to be 99.4%.
